Like-named read-outs stand apart in the source and are kept apart here.
Experiments:
[1] = tested on: CD20 positive cell line SUDHL4; assay: Cell proliferation/cytotoxicity assay (CellTiter-Glo) on SUDHL4 cells; type: cell-based, Human; settings: for EC50: read-out: EC50 in picoM, SUDHL4; for % viab., SUDHL4: figure in brackets after EC50
Experimental: (§1) These cell lines are the Ramos (Human Burkitt's lymphoma) and SUDHL4 (Non-Hodgkin lymphoma) cell lines. […] Cell viability was then analyzed using the CellTiter-Glo luminescent cell viability assay and standard package insert protocol of the manufacturer (Promega, Madison, Wis.).

[2] = tested on: CD20 positive cell line Ramos; assay: Cell proliferation/cytotoxicity assay (CellTiter-Glo) on Ramos cells; type: cell-based, Human; settings: for % viab., Ramos: figure in brackets after EC50; for % viab., Ramos / EC50: 72 hours incubation; for EC50: CellTiter-Glo, Tables 1-2, read-out: EC50 in picoM, Ramos
Experimental: as §1

[3] = 72 hours incubation, CellTiter-Glo, Tables 1-2

SMILES	EC50 [2]	EC50 [1, 3]	other results
C[C@]12CC[C@H](O)C[C@H]1CC[C@@H]1[C@@H]2CC[C@]2(C)[C@@H](c3ccc(=O)oc3)CC[C@]12O [Bufalin, reference compound]	–	–	EC50 ([1]; Homo sapiens, SU-DHL-4, 72 h): 16 nM
C[C@]12CC[C@H](OC3OC[C@H](N)[C@@H](O)[C@@H]3O)C=C1CC[C@@H]1[C@@H]2CC[C@]2(C)[C@@H](c3ccc(=O)oc3)CC[C@]12O (stereo partly shown) [CEN09-106]	–	–	% viab., Ramos [2]: 0%; activity on Ramos cells in FIG. 8 study ([2]; in the absence of complement, FIG. 8): significant but much less potent activity; % viab., SUDHL4 ([1]; 72 hours incubation): 0%
CC12CCC(OC(=O)N3CCNCC3)CC1CCC1C2CCC2(C)C(c3ccc(=O)oc3)CCC12O (stereo not shown) [CEN-371]	7.81 nM	11 nM	% viab., Ramos [2]: 0%; % viab., SUDHL4 ([1]; 72 hours incubation): 0%
CN(CCCN)CCCNC(=O)O[C@H]1CC[C@@]2(C)[C@H](CC[C@@H]3[C@@H]2CC[C@]2(C)[C@H](c4ccc(=O)oc4)CC[C@]32O)C1 [CEN-372]	3.6 nM	4.4 nM	–
C[C@]12CC[C@H](OC(=O)NCCCNCCCN)C[C@H]1CC[C@@H]1[C@@H]2CC[C@]2(C)[C@H](c3ccc(=O)oc3)CC[C@]12O [CEN-373]	4 nM	5.9 nM	–
C[C@]1(OC(=O)NCCCN2CCN(CCCN)CC2)CC[C@@]2(C)[C@H](CC[C@@H]3[C@@H]2CC[C@]2(C)[C@@](C)(C4=CC(=O)OC4)CC[C@]32O)C1 [CEN-381]	> 50 nM	> 50 nM	–
C[C@]12CC[C@H](O)C[C@H]1CC[C@@H]1[C@@H]2CC[C@]2(C)[C@@H](C3=CC(=O)OC3)CC[C@]12O [Digitoxigenin, reference compound]	–	–	EC50 ([1]; Homo sapiens, SU-DHL-4, 72 h): > 50 nM
C[C@]12CC[C@H](O)C=C1CC[C@@H]1[C@@H]2CC[C@]2(C)[C@@H](c3ccc(=O)oc3)CC[C@]12O [Scillarenin, reference compound]	–	–	EC50 ([1]; Homo sapiens, SU-DHL-4, 72 hours incubation, CellTiter-Glo, Tables 1-2): 18 nM

Reference: US20190008983A1, “EXTRACELLULAR DRUG CONJUGATES TARGETING CD20” (priority 2015, published 2019)
